Consider one compound from patent US7772180B2, “Hepatitis C virus inhibitors” (Bristol-Myers Squibb Company, priority 2006, dated 2010).

The test system of this assay is HCV replicon with Renilla luciferase reporter in HUH-7 cells. The experiment in a line: HCV replicon luciferase reporter assay. Format: cell-based, Hepatitis C virus. The source says:
An HCV replicon whole cell system was established as described by Lohmann V, Korner F, Koch J, Herian U, Theilmann L, Bartenschlager R., Science 285(5424): 110-3 (1999). This system enabled us to evaluate the effects of our HCV Protease compounds on HCV RNA replication. Briefly, using the HCV strain 1b sequence described in the Lohmann paper (Assession number: AJ238799), an HCV cDNA was synthesized by Operon Technologies, Inc. (Alameda, Calif.), and the full-length replicon was then assembled in plasmid pGem9zf(+) (Promega, Madison, Wis.) using standard molecular biology techniques. The replicon consists of (i) the HCV 5′ UTR fused to the first 12 amino acids of the capsid protein, (ii) the neomycin phosphotransferase gene (neo), (iii) the IRES from encephalomyocarditis virus (EMCV), and (iv) HCV NS3 to NS5B genes and the HCV 3′ UTR. […]
As a secondary assay, EC50 determinations from the replicon FRET assay were confirmed in a replicon luciferase reporter assay. […] Following 4 days in a 37° C./5% CO2 incubator, cells were analyzed for Renilla Luciferase activity using the Promega Dual-Glo Luciferase Assay System. […] Plates were read on a Packard TopCount NXT using a luminescence program.
The percentage inhibition was calculated using the formula below: […]
The values were graphed and analyzed using XLfit to obtain the EC50 value.
In general terms: In antiviral work, replicon cells carry a viral genome segment that copies itself.

As usually defined, the EC50 is the concentration at which the effect is half-maximal. Read a high EC50 as weaker potency.

`C=C[C@@H]1C[C@]1(NC(=O)[C@@H]1C[C@@H](Oc2nc(N(C)C)cc3cc(OC)ccc23)CN1C(=O)C(Nc1cc(C)cc(C)n1)C(C)(C)C)C(=O)NS(=O)(=O)C1CC1` (single isomer, unassigned) [Compound 18] displayed an EC50 of 1.1 nM.
